Measurements as given in patent US8183262B2, “Pyridine derivatives as mGluR2 antagonists” (Hoffmann-La Roche Inc., priority 2007, dated 2012).

| melting point | Structure (SMILES) |
| --- | --- |
| 143 to 147 °C | Cc1cc(-c2ccc(C(F)(F)F)cc2)cc(-c2cccc(-c3ccncc3)c2)n1 [Example 79, 2-Methyl-6-(3-pyridin-4-yl-phenyl)-4-(4-trifluoromethyl-phenyl)-pyridine] |
| 230 to 233 °C | Cc1cc(-c2ccc(Cl)cc2)cc(-n2cnc(-c3ccc(N)nc3)c2)n1 [Example 80, 5-{1-[4-(4-Chloro-phenyl)-6-methyl-pyridin-2-yl]-1H-imidazol-4-yl}-pyridin-2-ylamine] |
| 188 to 192 °C | Cc1cc(-c2ccc(Cl)cc2)cc(-c2cncc(-c3ccc(N)nc3)c2)n1 [Example 81, 4-(4-Chloro-phenyl)-6-methyl-[2,3′;5′,3″]terpyridin-6″-ylamine] |
| 197 to 199 °C | Cc1cc(-c2ccc(Cl)cc2)cc(-c2cccc(-c3cnc(N)nc3)c2)n1 [Example 82, 5-{3-[4-(4-Chloro-phenyl)-6-methyl-pyridin-2-yl]-phenyl}-pyrimidin-2-ylamine] |
| 176 to 179 °C | NS(=O)(=O)c1cccc(-c2cccc(-c3cc(C(F)(F)F)cc(-c4ccc(C(F)(F)F)cc4)n3)c2)c1 [Example 83, 3′-[4-Trifluoromethyl-6-(4-trifluoromethyl-phenyl)-pyridin-2-yl]-biphenyl-3-sulfonic acid amide] |
| 226 °C | FC(F)(F)c1cc(-c2ccc(Cl)cc2)nc(-c2ccnc(-c3cccnc3)c2)n1 [Example 84, 4-[4-(4-Chloro-phenyl)-6-trifluoromethyl-pyrimidin-2-yl]-[2,3]bipyridinyl] |
| 247 °C | FC(F)(F)c1ccc(-c2cc(C(F)(F)F)nc(-c3ccnc(-c4cccnc4)c3)n2)cc1 [Example 85, 4-[4-Trifluoromethyl-6-(4-trifluoromethyl-phenyl)-pyrimidin-2-yl]-[2,3′]bipyridinyl] |
| 193 °C | FC(F)(F)c1cc(-c2ccc(Cl)cc2)nc(-c2ccnc(-c3ccncc3)c2)n1 [Example 86, 4-[4-(4-Chloro-phenyl)-6-trifluoromethyl-pyrimidin-2-yl]-[2,4′]bipyridinyl] |
| 266.5 °C | CCOc1cc(-c2cc(C(F)(F)F)nc(-n3cnc(-c4ccc(N)nc4)c3)n2)ccc1C(F)(F)F [Example 87, 5-{1-[4-(3-Ethoxy-4-trifluoromethyl-phenyl)-6-trifluoromethyl-pyrimidin-2-yl]-1H-imidazol-4-yl}-pyridin-2-ylamine] |
| 210 °C | Nc1ccc(-c2cc(-c3nc(-c4ccc(C(F)(F)F)cc4)cc(C(F)F)n3)ccn2)cn1 [Example 88, 4-[4-Difluoromethyl-6-(4-trifluoromethyl-phenyl)-pyrimidin-2-yl]-[2,3′]bipyridinyl-6′-ylamine] |
| 250.5 °C | CCOc1cc(-c2cc(C(F)(F)F)nc(-c3nc(-c4ccc(S(N)(=O)=O)cc4)no3)n2)ccc1C(F)(F)F [Example 89, 4-{5-[4-(3-Ethoxy-4-trifluoromethyl-phenyl)-6-trifluoromethyl-pyrimidin-2-yl]-[1,2,4]oxadiazol-3-yl}-benzenesulfonamide] |
| 227 °C | CCOc1cc(-c2cc(C(F)(F)F)nc(-c3nc(-c4cccc(S(N)(=O)=O)c4)no3)n2)ccc1C(F)(F)F [Example 91, 3-{5-[4-(3-Ethoxy-4-trifluoromethyl-phenyl)-6-trifluoromethyl-pyrimidin-2-yl]-[1,2,4]oxadiazol-3-yl}-benzenesulfonamide] |
| 222 °C | CCOc1cc(-c2cc(C(F)(F)F)nc(-c3ccnc(-c4ccc(N)nc4)c3)n2)ccc1C(F)(F)F [Example 92, 4-[4-(3-Ethoxy-4-trifluoromethyl-phenyl)-6-trifluoromethyl-pyrimidin-2-yl]-[2,3′]bipyridinyl-6′-ylamine] |
| 208 °C | CCOc1cc(-c2cc(C(F)(F)F)nc(-c3cccc(-c4ccc(N)nc4)c3)n2)ccc1C(F)(F)F [Example 93, 5-{3-[4-(3-Ethoxy-4-trifluoromethyl-phenyl)-6-trifluoromethyl-pyrimidin-2-yl]-phenyl}-pyridin-2-ylamine] |
| 309 °C | Nc1ccc(-c2cn(-c3nc(-c4ccc(C(F)(F)F)c(F)c4)cc(C(F)(F)F)n3)cn2)cn1 [Example 94, 5-{1-[4-(3-Fluoro-4-trifluoromethyl-phenyl)-6-trifluoromethyl-pyrimidin-2-yl]-1H-imidazol-4-yl}-pyridin-2-ylamine] |
| 314 °C | CC(=O)Nc1ccc(-c2cn(-c3nc(-c4ccc(C(F)(F)F)cc4)cc(C(F)(F)F)n3)cn2)cn1 [Example 95, N-(5-{1-[4-Trifluoromethyl-6-(4-trifluoromethyl-phenyl)-pyrimidin-2-yl]-1H-imidazol-4-yl}-pyridin-2-yl)-acetamide] |
| 212 °C | Nc1ccc(-c2cccc(-c3nc(-c4ccc(C(F)(F)F)c(F)c4)cc(C(F)(F)F)n3)c2)cn1 [Example 96, 5-{3-[4-(3-Fluoro-4-trifluoromethyl-phenyl)-6-trifluoromethyl-pyrimidin-2-yl]-phenyl}-pyridin-2-ylamine] |
| 179 °C | Nc1ccc(-c2cccc(-c3nc(-c4ccc(Cl)c(Cl)c4)cc(C(F)(F)F)n3)c2)cn1 [Example 97, 5-{3-[4-(3,4-Dichloro-phenyl)-6-trifluoromethyl-pyrimidin-2-yl]-phenyl}-pyridin-2-ylamine] |

| melting point | Structure (SMILES) |
| --- | --- |
| 302.5 °C | NS(=O)(=O)c1ccc(-c2noc(-c3nc(-c4ccc(Cl)c(Cl)c4)cc(C(F)(F)F)n3)n2)cc1 [Example 98, 4-{5-[4-(3,4-Dichloro-phenyl)-6-trifluoromethyl-pyrimidin-2-yl]-[1,2,4]oxadiazol-3-yl}-benzenesulfonamide] |
| 258 °C | NS(=O)(=O)c1cccc(-c2noc(-c3nc(-c4ccc(Cl)c(Cl)c4)cc(C(F)(F)F)n3)n2)c1 [Example 99, 3-{5-[4-(3,4-Dichloro-phenyl)-6-trifluoromethyl-pyrimidin-2-yl]-[1,2,4]oxadiazol-3-yl}-benzenesulfonamide] |
| 227 °C | Nc1ccc(-c2noc(-c3nc(-c4ccc(Cl)c(Cl)c4)cc(C(F)(F)F)n3)n2)cn1 [Example 100, 5-{5-[4-(3,4-Dichloro-phenyl)-6-trifluoromethyl-pyrimidin-2-yl]-[1,2,4]oxadiazol-3-yl}-pyridin-2-ylamine] |
| 236.5 °C | Nc1ccc(-c2nccc(-c3nc(-c4ccc(C(F)(F)F)cc4)cc(C(F)(F)F)n3)n2)cn1 [Example 101, 5-[6-Trifluoromethyl-4-(4-trifluoromethyl-phenyl)-[2,4′]bipyrimidinyl-2′-yl]-pyridin-2-ylamine] |
| 282.5 °C | Nc1ccc(-c2cn(-c3nc(-c4ccc(Cl)c(Cl)c4)cc(C(F)(F)F)n3)cn2)cn1 [Example 102, 5-{1-[4-(3,4-Dichloro-phenyl)-6-trifluoromethyl-pyrimidin-2-yl]-1H-imidazol-4-yl}-pyridin-2-ylamine] |
| 276 °C | Cc1cc(-c2cc(C(F)(F)F)nc(-n3cnc(-c4ccc(N)nc4)c3)n2)ccc1Cl [Example 104, 5-{1-[4-(4-Chloro-3-methyl-phenyl)-6-trifluoromethyl-pyrimidin-2-yl]-1H-imidazol-4-yl}-pyridin-2-ylamine] |
| 168.5 °C | Cc1cc(-c2cc(C(F)(F)F)nc(-c3cccc(-c4ccc(N)nc4)c3)n2)ccc1Cl [Example 105, 5-{3-[4-(4-Chloro-3-methyl-phenyl)-6-trifluoromethyl-pyrimidin-2-yl]-phenyl}-pyridin-2-ylamine] |
| 246 °C | Cc1cc(-c2cc(C(F)(F)F)nc(-c3nc(-c4cccc(S(N)(=O)=O)c4)no3)n2)ccc1Cl [Example 106, 3-{5-[4-(4-Chloro-3-methyl-phenyl)-6-trifluoromethyl-pyrimidin-2-yl]-[1,2,4]oxadiazol-3-yl}-benzenesulfonamide] |
| 199.5 °C | Cc1cc(-c2cc(C(F)(F)F)nc(-c3nc(-c4ccc(N)nc4)no3)n2)ccc1Cl [Example 107, 5-{5-[4-(4-Chloro-3-methyl-phenyl)-6-trifluoromethyl-pyrimidin-2-yl]-[1,2,4]oxadiazol-3-yl}-pyridin-2-ylamine] |
| 207 °C | Cc1cc(-c2cc(C(F)(F)F)nc(-c3ccnc(-c4ccc(N)nc4)c3)n2)ccc1Cl [Example 108, 4-[4-(4-Chloro-3-methyl-phenyl)-6-trifluoromethyl-pyrimidin-2-yl]-[2,3′]bipyridinyl-6′-ylamine] |
| 168.5 °C | Cc1cc(-c2ccc(Cl)cc2)nc(-c2cccc(-c3ccc(N)nc3)c2)n1 [Example 109, 5-{3-[4-(4-Chloro-phenyl)-6-methyl-pyrimidin-2-yl]-phenyl}-pyridin-2-ylamine] |
| 228 °C | Cc1cc(-c2ccc(Cl)cc2)nc(-c2cccc(-c3cnc(N)nc3)c2)n1 [Example 110, 5-{3-[4-(4-Chloro-phenyl)-6-methyl-pyrimidin-2-yl]-phenyl}-pyrimidin-2-ylamine] |
| 270 °C | Nc1ccc(-c2cn(-c3nc(-c4ccc(C(F)(F)F)cc4)cc(C(F)(F)F)n3)cn2)cc1 [Example 111, 4-{1-[4-Trifluoromethyl-6-(4-trifluoromethyl-phenyl)-pyrimidin-2-yl]-1H-imidazol-4-yl}-phenylamine] |
| 199 °C | Cc1cc(-c2ccc(Cl)cc2)nc(-c2ccnc(-c3ccc(N)nc3)c2)n1 [Example 112, 4-[4-(4-Chloro-phenyl)-6-methyl-pyrimidin-2-yl]-[2,3′]bipyridinyl-6′-ylamine] |
| 232 °C | Cc1cc(-c2ccc(C(F)(F)F)cc2)nc(-c2ccnc(-c3ccc(N)nc3)c2)n1 [Example 113, 4-[4-Methyl-6-(4-trifluoromethyl-phenyl)-pyrimidin-2-yl]-[2,3′]bipyridinyl-6′-ylamine] |
| 290 °C | Cc1cc(-c2ccc(C(F)(F)F)cc2)nc(-c2cccc(-c3cnc(N)nc3)c2)n1 [Example 115, 5-{3-[4-Methyl-6-(4-trifluoromethyl-phenyl)-pyrimidin-2-yl]-phenyl}-pyrimidin-2-ylamine] |
| 224 °C | Cc1cc(-c2ccc(C(F)(F)F)cc2)nc(-c2cccc(-c3ccc(N)nc3)c2)n1 [Example 116, 5-{3-[4-Methyl-6-(4-trifluoromethyl-phenyl)-pyrimidin-2-yl]-phenyl}-pyridin-2-ylamine] |
| 186 °C | Nc1ccc(-c2cccc(-c3nc(-c4ccc(C(F)(F)F)cc4)cc(C(F)(F)F)n3)c2)cc1 [Example 117, 3′-[4-Trifluoromethyl-6-(4-trifluoromethyl-phenyl)-pyrimidin-2-yl]-biphenyl-4-ylamine] |
